Assay results: patent EP4615450B1 (priority 2023, dated 2024)

Tested on: SARS-CoV2
Test: PCR test (Ct value) in patients, three successive lozenges (Beispiel 2)
Format: in vivo, Patienten
Conditions: result in words; over time with successive administration of several lozenges, also versus placebo
Text: Darüber hinaus wird die antivirale Wirksamkeit einer erfindungsgemäß einsetzbaren Zusammensetzung in Form der in Beispiel 1 beschriebenen Octenidindihydrochlorid-Lutschtablette an weiteren Patienten untersucht. Die Patienten weisen im Hinblick auf SARS-CoV2 vor Verabreichung der Lutschtabletten einen positiven PCR-Test auf (in der nachfolgenden Tabelle 3 unter "Ct0" angegeben).
Die Patienten erhalten insgesamt jeweils drei Octenidindihydrochlorid-Lutschtabletten in definierter zeitlicher Abfolge. Die Lutschzeit beträgt für eine jeweilige Tablette 15 Minuten, wobei jeweils nach jeweils weiteren 15 Minuten ein PCR-Test durchgeführt wird. Der PCR-Test nach Verabreichung der ersten Octenidindihydrochlorid-Lutschtablette wird somit 30 Minuten nach erfolgter Verabreichung durchgeführt (in der nachfolgenden Tabelle 3 unter "Ct1" angeführt).
Die zweite Octenidindihydrochlorid-Lutschtablette wird 2,5 Stunden nach Verabreichung der ersten Lutschtablette verabreicht, wobei der diesbezügliche PCR-Test 3 Stunden nach Verabreichung der ersten Lutschtablette und 30 Minuten nach Verabreichung der zweiten Lutsch-tablette durchgeführt wird (in der nachfolgenden Tabelle 3 unter "Ct2" angeführt). […]

**Q.** For `CCCCCCCCNc1cc[n+](CCCCCCCCCC[n+]2ccc(NCCCCCCCC)cc2)cc1.[Cl-].[Cl-]` [Octenidindihydrochlorid, 1,1'-(1,10-Decandiyl)bis[4-(octylamino)pyridinium]-dichlorid], which Ct-Wert is on record?
**A.** deutliche und nachhaltige Zuname des jeweiligen Ct-Werts
